Experimental data published in patent publication US20070179060A1, “6-(Poly-substituted aryl)-4-aminopicolinates and their use as herbicides” (priority 2006, published 2007).

Assays:
[1] = test system: lambsquarter (Chenopodium album); experiment: Postemergence herbicidal activity; assay type: in vivo; conditions: post-emergent, after 14 days; for % Control CHEAL / pest or weed control at 140 g/ha: 140 g ai/ha
Procedure: (§1) Seeds or nutlets of the desired test plant species were planted in Sun Gro MetroMix® 306 planting mixture, which typically has a pH of 6.0 to 6.8 and an organic matter content of about 30 percent, in plastic pots with a surface area of 64 square centimeters. When required to ensure good germination and healthy plants, a fungicide treatment and/or other chemical or physical treatment was applied. The plants were grown for 7-21 days in a greenhouse with an approximate 15 hour photoperiod which was maintained at about 23-29° C. during the day and 22-28° C. during the night. Nutrients and water were added on a regular basis and supplemental lighting was provided with overhead metal halide 1000-Watt lamps as necessary. The plants were employed for testing when they reached the first or second true leaf stage. […] The concentrated stock solutions obtained were diluted with 20 mL of an aqueous mixture containing acetone, water, isopropyl alcohol, DMSO, Atplus 411F crop oil concentrate, and Triton® X-155 surfactant in a 48.5:39:10:1.5:1.0:0.02 v/v ratio to obtain spray solutions containing the highest application rates. […] Compound requirements are based upon a 12 mL application volume at a rate of 187 L/ha. Formulated compounds were applied to the plant material with an overhead Mandel track sprayer equipped with a […] nozzles calibrated to deliver 187 L/ha over an application area of 0.503 square meters at a spray height of 18 inches (43 cm) above the average plant canopy height. Control plants were sprayed in the same manner with the solvent blank. The treated plants and control plants were placed in a greenhouse as described above and watered by sub-irrigation to prevent wash-off of the test compounds. […] By applying the well-accepted probit analysis as described by J. Berkson in Journal of the American Statistical […], 48, 565 (1953) and by D.

[2] = test system: redroot pigweed (Amaranthus retroflexus); experiment: Postemergence herbicidal activity; assay type: in vivo; conditions: post-emergent, after 14 days; for % Control AMARE / pest or weed control at 140 g/ha: 140 g ai/ha
Procedure: as §1

[3] = test system: velvetleaf (Abutilon theophrasti); experiment: Postemergence herbicidal activity; assay type: in vivo; conditions: post-emergent, after 14 days; for % Control ABUTH / pest or weed control at 140 g/ha: 140 g ai/ha
Procedure: as §1

[4] = Chenopodium album, post-emergence, 336 h, read-out: % Control CHEAL
[5] = Amaranthus retroflexus, post-emergence, 336 h, read-out: % Control AMARE
[6] = Abutilon theophrasti, post-emergence, 336 h, read-out: % Control ABUTH

Compound	% Control CHEAL [1] [%]	% Control AMARE [2] [%]	% Control ABUTH [3] [%]	pest or weed control at 140 g/ha [1, 4] [%]	pest or weed control at 140 g/ha [2, 5] [%]	pest or weed control at 140 g/ha [3, 6] [%]	also measured
4-Amino-3-chloro-(2-chloro-4-difluoromethyl-6-fluoro-3-methoxy-phenyl)pyridine-2-carboxylic acid, methyl ester [Compound 53]	95	80	70				
COC(=O)c1nc(-c2ccc(C#N)c(OC)c2F)cc(N)c1Cl [Compound 6, 4-Amino-3-chloro-6-(4-cyano-2-fluoro-3-methoxyphenyl)pyridine-2-carboxylic acid methyl ester]				95	100	90	
COC(=O)c1nc(-c2cc(OC)c(Cl)cc2F)cc(NC(C)=O)c1Cl [Compound 18, 4-acetylamino-3-chloro-6-(4-chloro-2-fluoro-5-methoxy-phenyl)pyridine-2-carboxylic acid methyl ester]							melting point: 180 to 182 °C
COC(=O)c1nc(-c2ccc(Cl)c(C)c2F)cc(NC(C)=O)c1Cl [Compound 19, 4-Acetylamino-3-chloro-6-(4-chloro-2-fluoro-3-methylphenyl)pyridine-2-carboxylic acid methyl ester]							melting point: 151 to 152 °C
COC(=O)c1nc(-c2ccc(Cl)c(C(C)(C)F)c2F)cc(N)c1Cl [Compound 25, 4-Amino-3-chloro-6-[4-chloro-2-fluoro-3-(1-fluoro-1-methylethyl)phenyl]-pyridine-2-carboxlic acid, methyl ester]	100	100	100				
COC(=O)c1nc(-c2ccc(F)c(OC)c2F)cc(NC(C)=O)c1Cl [Compound 28, 4-Acetylamino-3-chloro-(2,4-difluoro-3-methoxyphenyl)pyridine-2-carboxylic acid, methyl ester]	95	100	100				
COC(=O)c1nc(-c2ccc(F)c(OC)c2Cl)cc(NC(C)=O)c1Cl [Compound 29, 4-Acetylamino-3-chloro-(2-chloro-4-fluoro-3-methoxyphenyl)pyridine-2-carboxylic acid, methyl ester]	98	40	95				
CCC(F)c1c(Cl)ccc(-c2cc(NC(C)=O)c(Cl)c(C(=O)OC)n2)c1F (centres unmarked) [Compound 32, 4-Acetylamino-3-chloro-6-[4-chloro-2-fluoro-3-(1-fluoropropyl)-phenyl]pyridine-2-carboxylic acid, methyl ester]				50	80	60	
COC(=O)c1nc(-c2ccc(Cl)c(N(C)C)c2Cl)cc(N)c1Cl [Compound 37, 4-Amino-3-chloro-6-[2,4-dichloro-3-(dimethylamino)phenyl]pyridine-2-carboxylic acid, methyl ester]				100	100	100	
COC(=O)c1nc(-c2ccc(Cl)c(C(=O)OC)c2F)cc(N)c1Cl [Compound 39, 4-Amino-3-chloro-6-[4-chloro-2-fluoro-3-(methoxycarbonyl)phenyl]pyridine-2-carboxyic acid, methyl ester]	95	75	90				
COC(=O)c1nc(-c2ccc(Cl)c(C)c2Cl)cc(N)c1Cl [Compound 48, 4-Amino-3-chloro-6-(2,4-dichloro-3-methylphenyl)pyridine-2-carboxylic acid methyl ester]							pest or weed control at 101 g/ha ([1]; Chenopodium album, post-emergence, 336 h, 101 g ai/ha, read-out: % Control CHEAL): 85%; pest or weed control at 101 g/ha ([2]; Amaranthus retroflexus, post-emergence, 336 h, 101 g ai/ha, read-out: % Control AMARE): 80%; pest or weed control at 101 g/ha ([3]; Abutilon theophrasti, post-emergence, 336 h, 101 g ai/ha, read-out: % Control ABUTH): 98%
COC(=O)c1nc(-c2c(F)cc(Cl)c(C(F)F)c2F)cc(N)c1Cl [Compound 54, 4-Amino-3-chloro-6-(4-chloro-3-difluoromethyl-2,6-difluorophenyl)pyridine-2-carboxylic acid, methyl ester]				100	100	100	
COC(=O)c1nc(-c2c(F)cc(F)c(OC)c2Cl)cc(N)c1Cl [Compound 55, 4-Amino-3-chloro-(2-chloro-4,6-difluoro-3-methoxyphenyl)pyridine-2-carboxylic acid, methyl ester]	90	100	100				
COC(=O)c1nc(-c2c(F)cc(Cl)c(OC)c2Cl)cc(N)c1Cl [Compound 57, 4-Amino-3-chloro-6-(2,4-dichloro-6-fluoro-3-methoxyphenyl)pyridine-2-carboxylic acid, methyl ester]				100	100	100	
CCCCOc1c(Cl)ccc(-c2cc(N)c(Cl)c(C(=O)OC)n2)c1F [Compound 60, 4-Amino-3-chloro-6-(4-chloro-3-butoxy-2-fluorophenyl)pyridine-2-carboxylic acid, methyl ester]				90	90	55	
CCC(F)c1c(Cl)ccc(-c2cc(N)c(Cl)c(C(=O)OC)n2)c1F (centres unmarked) [Compound 66, 4-Amino-3-chloro-6-[4-chloro-2-fluoro-3-(1-fluoropropyl)phenyl]pyridine-2-carboxylic acid, methyl ester]	95	100	90				
COC(=O)c1nc(-c2ccc(CF)c(OC)c2F)cc(N)c1Cl [Compound 72, 4-Amino-3-chloro-6-(2-fluoro-4-fluoromethyl-3-methoxyphenyl)pyridine-2-carboxylic acid, methyl ester]				80	20	100	
COC(=O)c1nc(-c2c(F)cc(Cl)c(C)c2F)cc(N)c1Cl [Compound 75, 4-Amino-3-chloro-6-(4-chloro-2,6-difluoro-3-methylphenyl)pyridine-2-carboxylic acid, methyl ester]				95	95	100	
COC(=O)c1nc(-c2ccc(Cl)c(OC)c2Br)cc(N)c1Cl [Compound 76, 4-Amino-6-(2-bromo-4-chloro-3-methoxyphenyl)-3-chloropyridine-2-carboxylic acid, methyl ester]				100	100	100	
COC(=O)c1nc(-c2c(F)cc(F)c(C(F)F)c2F)cc(N)c1Cl [Compound 78, 4-Amino-3-chloro-6-(3-difluoromethyl-2,4,6-trifluorophenyl)pyridine-2-carboxylic acid, methyl ester]				100	100	90	
COC(=O)c1nc(-c2ccc(Cl)c([S+](C)[O-])c2F)cc(N)c1Cl (centres unmarked) [Compound 83, 4-amino-3-chloro-6-(4-chloro-2-fluoro-3-methanesulfinyl-phenyl)pyridine-2-carboxylic acid methyl ester]				85	85	90	
COC(=O)c1nc(-c2ccc(Cl)c(S(C)(=O)=O)c2F)cc(N)c1Cl [Compound 84, 4-amino-3-chloro-6-(4-chloro-2-fluoro-3-methanesulfonylphenyl)pyridine-2-carboxylic acid methyl ester]				70	75	80	
Cc1c(F)ccc(-c2cc(N)c(Cl)c(C(=O)O)n2)c1F [Compound 97, 4-Amino-3-chloro-(2,4-difluoro-3-methylphenyl)pyridine-2-carboxylic acid]	80	85	65				
Nc1cc(-c2ccc(Cl)c(CF)c2F)nc(C(=O)O)c1Cl [Compound 114, 4-Amino-3-chloro-6-(4-chloro-2-fluoro-3-fluoromethylphenyl)pyridine-2-carboxylic acid]				95	85	95	
CC(C)(F)c1c(Cl)ccc(-c2cc(N)c(Cl)c(C(=O)O)n2)c1Cl [Compound 127]	100	100	90				
